Source: patent US10246456B2, “IRAK4 inhibiting agents” (BIOGEN MA INC., priority 2014, dated 2019)

Legend:
[1] = system: IL-6 in A549 cells; assay: Cell-based IL-6 ELISA assay in IL-1beta stimulated A549 cells; conditions: 2 ng/ml human IL-1beta overnight
Outline: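 A549 cells (2.5×10^4/well, DMEM/10% FBS) pretreated 30 min at 37 C with compound, 10-point serial dilution from 10 uM, then stimulated overnight with 2 ng/ml human IL-1beta. Secreted IL-6 in supernatant quantified by human IL-6 ELISA.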

[2] = target: IRAK4 (Homo sapiens (Human), UniProt Q9NWZ3); assay: IRAK-4 AlphaScreen biochemical kinase assay; conditions: 1 nM IRAK4, 1 mM ATP, 3.5 h at RT
IRAK4, sequence (Q9NWZ3 whole entry, species assumed): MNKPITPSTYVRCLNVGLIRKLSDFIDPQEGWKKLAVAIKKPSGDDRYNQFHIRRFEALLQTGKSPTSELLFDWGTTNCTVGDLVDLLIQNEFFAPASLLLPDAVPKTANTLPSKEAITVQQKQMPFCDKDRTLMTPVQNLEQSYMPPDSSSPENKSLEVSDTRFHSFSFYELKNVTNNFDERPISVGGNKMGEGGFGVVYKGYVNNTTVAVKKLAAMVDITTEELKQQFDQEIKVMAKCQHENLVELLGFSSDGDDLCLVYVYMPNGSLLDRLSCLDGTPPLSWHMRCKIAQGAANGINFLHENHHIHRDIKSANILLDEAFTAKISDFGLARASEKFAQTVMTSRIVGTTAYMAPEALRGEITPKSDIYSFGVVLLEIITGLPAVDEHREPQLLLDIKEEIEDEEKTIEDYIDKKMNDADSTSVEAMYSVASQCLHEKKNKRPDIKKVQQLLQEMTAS
Outline: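 AlphaScreen read-out: streptavidin beads bind the biotinylated peptide and protein A beads bind the anti-phosphothreonine antibody, so energy transfer reports phosphorylation of the peptide. The kinase is human IRAK-4.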

SMILES	EC50 [1] [µM]	IC50 [2] [µM]
CCC[C@H](N)c1cccc(-c2cc(C3CCN(C(C)=O)CC3)c3cnn(-c4cccc(CO)n4)c3c2)n1 [Example 515, (S)-1-(4-(6-(6-(1-aminobutyl)pyridin-2-yl)-1-(6-(hydroxymethyl)pyridin-2-yl)-1H-indazol-4-yl)piperidin-1-yl)ethanone]	≤ 1	< 0.1
CCC[C@H](N)c1cccc(-c2cc(CN(C)C)c3cnn(-c4cccc(CO)n4)c3c2)n1 [Example 517, (S)-(6-(6-(6-(1-aminobutyl)pyridin-2-yl)-4-((dimethylamino)methyl)-1H-indazol-1-yl)pyridin-2-yl)methanol]	≤ 1	< 0.1
CCC[C@H](N)c1cccc(-c2ccc3cnn(-c4cccc(CF)n4)c3c2)n1 [Example 518, (S)-1-(6-(1-(6-(fluoromethyl)pyridin-2-yl)-1H-indazol-6-yl)pyridin-2-yl)butan-1-amine]	≤ 1	< 0.1
CCC[C@H](N)c1cccc(-c2cc(OCCC3CC3)c3cnn(-c4cccc(CO)n4)c3c2)n1 [Example 522, (S)-(6-(6-(6-(1-aminobutyl)pyridin-2-yl)-4-(2-cyclopropylethoxy)-1H-indazol-1-yl)pyridin-2-yl)methanol]	≤ 1	< 0.1
CCC[C@H](N)c1cccc(-c2cc(OC(F)(F)F)c3cnn(-c4cccc(CO)n4)c3c2)n1 [Example 523, (S)-(6-(6-(6-(1-aminobutyl)pyridin-2-yl)-4-(trifluoromethoxy)-1H-indazol-1-yl)pyridin-2-yl)methanol]	≤ 1	< 0.1
CCC[C@H](NC)c1cccc(-c2ccc3cnn(-c4cccc(CO)n4)c3c2)n1 [Example 527, (S)-(6-(6-(6-(1-(methylamino)butyl)pyridin-2-yl)-1H-indazol-1-yl)pyridin-2-yl)methanol]	≤ 1	< 0.1
CC1COC(c2cc(-c3cccc([C@H](C)N)n3)cc3c2cnn3-c2cccc(CO)n2)=N1 (stereo partly drawn) [Example 528, (6-(6-(6-((S)-1-aminoethyl)pyridin-2-yl)-4-(4-methyl-4,5-dihydrooxazol-2-yl)-1H-indazol-1-yl)pyridin-2-yl)methanol]	≤ 1	< 0.1
CCC[C@H](N)c1cccc(-c2ccc3cnn(-c4nccc(C(F)(F)F)n4)c3c2)n1 [Example 531, (S)-1-(6-(1-(4-(trifluoromethyl)pyrimidin-2-yl)-1H-indazol-6-yl)pyridin-2-yl)butan-1-amine]	≤ 1	< 0.1
CS(=O)(=O)CC(N)c1cccc(-c2ccc3cnn(-c4cccc(CO)n4)c3c2)n1 (centres unmarked) [Example 532, (6-(6-(6-(1-amino-2-(methylsulfonyl)ethyl)pyridin-2-yl)-1H-indazol-1-yl)pyridin-2-yl)methanol]	≤ 1	< 0.1
CC[C@H](N)c1cccc(-c2cc(C#N)c3cnn(-c4cccc(CO)n4)c3c2)n1 [Example 533, (S)-6-(6-(1-aminopropyl)pyridin-2-yl)-1-(6-(hydroxymethyl)pyridin-2-yl)-1H-indazole-4-carbonitrile]	≤ 1	< 0.1
NC(CC1CC1)c1cccc(-c2ccc3cnn(-c4cccc(CO)n4)c3c2)n1 (centres unmarked) [Example 535, (6-(6-(6-(1-amino-2-cyclopropylethyl)pyridin-2-yl)-1H-indazol-1-yl)pyridin-2-yl)methanol]	≤ 1	< 0.1
C[C@H](N)c1cccc(-c2ccc3cnn(-c4nccc(C(F)F)n4)c3c2)n1 [Example 541, (S)-1-(6-(1-(4-(difluoromethyl)pyrimidin-2-yl)-1H-indazol-6-yl)pyridin-2-yl)ethanamine]	1 to 10	0.1 to 1
Cc1cccc(-n2ncc3c(-c4ncco4)cc(-c4cccc(C(C)N)n4)cc32)n1 (centres unmarked) [Example 542, 1-(6-(1-(6-methylpyridin-2-yl)-4-(oxazol-2-yl)-1H-indazol-6-yl)pyridin-2-yl)ethanamine]	1 to 10	< 0.1
COCC(N)c1cccc(-c2ccc3cnn(-c4cccc(CO)n4)c3c2)n1 (centres unmarked) [Example 543, (6-(6-(6-(1-amino-2-methoxyethyl)pyridin-2-yl)-1H-indazol-1-yl)pyridin-2-yl)methanol]	1 to 10	< 0.1
CN(C)C(=O)C(N)c1cccc(-c2ccc3cnn(-c4cccc(CO)n4)c3c2)n1 (centres unmarked) [Example 544, 2-amino-2-(6-(1-(6-(hydroxymethyl)pyridin-2-yl)-1H-indazol-6-yl)pyridin-2-yl)-N,N-dimethylacetamide]	1 to 10	< 0.1
C[C@H](N)c1cccc(-c2ccc3cnn(-c4ccc(F)c(CO)n4)c3c2)n1 [Example 545, (S)-(6-(6-(6-(1-aminoethyl)pyridin-2-yl)-1H-indazol-1-yl)-3-fluoropyridin-2-yl)methanol]	1 to 10	< 0.1
CCCC(O)c1cccc(-c2ccc3cnn(-c4cccc(CO)n4)c3c2)n1 (centres unmarked) [Example 550, 1-(6-(1-(6-(hydroxymethyl)pyridin-2-yl)-1H-indazol-6-yl)pyridin-2-yl)butan-1-ol]	1 to 10	1 to 10

The remaining lines, values ahead:

EC50 [1] [µM]	IC50 [2] [µM]	SMILES
≤ 1	< 0.1	CCOc1cc(-c2cccc([C@@H](N)CCCOC)n2)cc2c1cnn2-c1cccc(CO)n1 [Example 513, (S)-(6-(6-(6-(1-amino-4-methoxybutyl)pyridin-2-yl)-4-ethoxy-1H-indazol-1-yl)pyridin-2-yl)methanol]
≤ 1	< 0.1	CCC[C@H](N)c1cccc(-c2cc(OCC(F)(F)F)c3cnn(-c4cccc(CO)n4)c3c2)n1 [Example 514, (S)-(6-(6-(6-(1-aminobutyl)pyridin-2-yl)-4-(2,2,2-trifluoroethoxy)-1H-indazol-1-yl)pyridin-2-yl)methanol]
≤ 1	< 0.1	CSCC(N)c1cccc(-c2ccc3cnn(-c4cccc(CO)n4)c3c2)n1 (centres unmarked) [Example 520, (6-(6-(6-(1-amino-2-(methylthio)ethyl)pyridin-2-yl)-1H-indazol-1-yl)pyridin-2-yl)methanol]
≤ 1	< 0.1	CC(C)C[C@H](N)c1cccc(-c2ccc3cnn(-c4cccc(CO)n4)c3c2)n1 [Example 521, (S)-(6-(6-(6-(1-amino-3-methylbutyl)pyridin-2-yl)-1H-indazol-1-yl)pyridin-2-yl)methanol]
≤ 1	< 0.1	C[C@H](N)c1cccc(-c2cc(C3=NCCO3)c3cnn(-c4cccc(CO)n4)c3c2)n1 [Example 524, (S)-(6-(6-(6-(1-aminoethyl)pyridin-2-yl)-4-(4,5-dihydrooxazol-2-yl)-1H-indazol-1-yl)pyridin-2-yl)methanol]
≤ 1	< 0.1	CCC[C@H](N)c1cccc(-c2cc(OC(F)F)c3cnn(-c4cncc(CO)n4)c3c2)n1 [Example 526, (S)-(6-(6-(6-(1-aminobutyl)pyridin-2-yl)-4-(difluoromethoxy)-1H-indazol-1-yl)pyrazin-2-yl)methanol]
≤ 1	0.1 to 1	NC(CO)c1cccc(-c2ccc3cnn(-c4cccc(CO)n4)c3c2)n1 (centres unmarked) [Example 530, 2-amino-2-(6-(1-(6-(hydroxymethyl)pyridin-2-yl)-1H-indazol-6-yl)pyridin-2-yl)ethanol]
≤ 1	< 0.1	Cc1cccc(-n2ncc3c(-c4cnco4)cc(-c4cccc(C(C)N)n4)cc32)n1 (centres unmarked) [Example 536, 1-(6-(1-(6-methylpyridin-2-yl)-4-(oxazol-5-yl)-1H-indazol-6-yl)pyridin-2-yl)ethanamine]
≤ 1	< 0.1	C[C@H](N)c1cccc(-c2cc(C#N)c3cnn(-c4cccc(CO)n4)c3c2)n1 [Example 537, (S)-6-(6-(1-aminoethyl)pyridin-2-yl)-1-(6-(hydroxymethyl)pyridin-2-yl)-1H-indazole-4-carbonitrile]
≤ 1	< 0.1	NC(c1cccc(-c2ccc3cnn(-c4cccc(CO)n4)c3c2)n1)C1CC1 (centres unmarked) [Example 538, (6-(6-(6-(amino(cyclopropyl)methyl)pyridin-2-yl)-1H-indazol-1-yl)pyridin-2-yl)methanol]
1 to 10	< 0.1	CC[C@H](N)c1cccc(-c2ccc3cnn(-c4cccc(C(F)F)n4)c3c2)n1 [Example 539, (S)-1-(6-(1-(6-(difluoromethyl)pyridin-2-yl)-1H-indazol-6-yl)pyridin-2-yl)propan-1-amine]
1 to 10	0.1 to 1	C[C@H](N)c1cccc(-c2cc(C(=O)NC(C)(C)CO)c3cnn(-c4cccc(CO)n4)c3c2)n1 [Example 540, (S)-6-(6-(1-aminoethyl)pyridin-2-yl)-N-(1-hydroxy-2-methylpropan-2-yl)-1-(6-(hydroxymethyl)pyridin-2-yl)-1H-indazole-4-carboxamide]
1 to 10	< 0.1	CCC[C@H](N)c1cccc(-c2ccc3cnn(-c4cncc(C(F)(F)F)n4)c3c2)n1 [Example 546, (S)-1-(6-(1-(6-(trifluoromethyl)pyrazin-2-yl)-1H-indazol-6-yl)pyridin-2-yl)butan-1-amine]
1 to 10	0.1 to 1	CC(N)CNC(=O)c1cc(-c2cccc([C@H](C)N)n2)cc2c1cnn2-c1cccc(CO)n1 (stereo partly drawn) [Example 548, 6-(6-((S)-1-aminoethyl)pyridin-2-yl)-N-(2-aminopropyl)-1-(6-(hydroxymethyl)pyridin-2-yl)-1H-indazole-4-carboxamide]
